For 18 compounds, T/C results are on record in PubChem BioAssay AID256 (DTP/NCI, 2004).

The test has as its system CD2F1 mice, L1210 leukemia ip, survival T/C. The test can be described thus: NCI In Vivo Anticancer Drug Screen. Data for tumor model L1210 Leukemia (intraperitoneal) in CD2F1 (CDF1) mice. Conditions: higher = longer survival. A digest of the protocol: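 Ratio T/C, where T is the treated-group value and C the vehicle-dosed control value, from mice implanted with a transplantable tumor.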

Setting [1] is: endpoint: mean survival time, dose: 50.0 mg/kg/injection, schedule: Q04DX002 (ip), vehicle: saline with Tween-80.
[2] abbreviates: endpoint: mean survival time, dose: 100.0 mg/kg/injection, schedule: Q04DX002 (ip), vehicle: saline with Tween-80.
[3] abbreviates: endpoint: mean survival time, dose: 200.0 mg/kg/injection, schedule: Q04DX002 (ip), vehicle: saline with Tween-80.
Setting [4] is: endpoint: mean survival time, dose: 100.0 mg/kg/injection, schedule: Q04DX003 (ip), vehicle: saline with Tween-80.
The mark [5] stands for this setting: endpoint: mean survival time, dose: 200.0 mg/kg/injection, schedule: Q04DX003 (ip), vehicle: saline with Tween-80.
Where [6] appears, read: endpoint: mean survival time, dose: 400.0 mg/kg/injection, schedule: Q04DX003 (ip), vehicle: saline with Tween-80.
[7] abbreviates: endpoint: mean survival time, dose: 100.0 mg/kg/injection, schedule: Q04DX003 (ip), vehicle: Klucel (hydroxypropylcellulose) (HPC).
[8] abbreviates: endpoint: mean survival time, dose: 50.0 mg/kg/injection, schedule: Q01DX009 (ip), vehicle: saline.
The mark [9] stands for this setting: endpoint: mean survival time, dose: 100.0 mg/kg/injection, schedule: Q01DX009 (ip), vehicle: saline.
The mark [10] stands for this setting: endpoint: mean survival time, dose: 200.0 mg/kg/injection, schedule: Q01DX009 (ip), vehicle: saline.
Where [11] appears, read: endpoint: mean survival time, dose: 100.0 mg/kg/injection, schedule: Q04DX003 (ip), vehicle: saline.
The mark [12] stands for this setting: endpoint: mean survival time, dose: 200.0 mg/kg/injection, schedule: Q04DX003 (ip), vehicle: saline.
The mark [13] stands for this setting: endpoint: mean survival time, dose: 25.0 mg/kg/injection, schedule: Q04DX003 (ip), vehicle: saline with Tween-80.

Several values for one entry are separate records, joined by “and”; a condition that tells them apart may be missing. Equal values may be shown once. Inconclusive results and toxic doses are left out.

On to `C1CCC(C2CCCC[N-]2)[N-]C1.CSCCC([NH-])C(=O)O.[Cl][Pt]` (stereo not drawn), for which the T/C is 101 % of control (endpoint: median survival time, dose: 10.0 mg/kg/injection, schedule: Q04DX003 (ip), vehicle: saline); 101 % of control (endpoint: median survival time, dose: 20.0 mg/kg/injection, schedule: Q04DX003 (ip), vehicle: saline); 94 % of control (endpoint: median survival time, dose: 40.0 mg/kg/injection, schedule: Q04DX003 (ip), vehicle: saline); 101 % of control and 103 % of control (endpoint: median survival time, dose: 80.0 mg/kg/injection, schedule: Q04DX003 (ip), vehicle: saline); 96 % of control (endpoint: median survival time, dose: 160.0 mg/kg/injection, schedule: Q04DX003 (ip), vehicle: saline); 108 % of control (endpoint: median survival time, dose: 320.0 mg/kg/injection, schedule: Q04DX003 (ip), vehicle: saline).

In the case of `Cc1ccc(SC(=O)Cc2ccc([N+](=O)[O-])cc2)cc1`, the T/C was 92 % of control (endpoint: mean survival time, dose: 100.0 mg/kg/injection, schedule: Q01DX001 (ip), vehicle: saline with Tween-80); 88 % of control (endpoint: mean survival time, dose: 200.0 mg/kg/injection, schedule: Q01DX001 (ip), vehicle: saline with Tween-80); 93 % of control (endpoint: mean survival time, dose: 400.0 mg/kg/injection, schedule: Q01DX001 (ip), vehicle: saline with Tween-80).

Turning to `CC1(Br)CCOC1=O` (stereo not drawn), the T/C by setting is: under setting [1], 98 % of control; under setting [2], 98 % of control; under setting [3], 111 % of control.

For the compound `CC(=O)N(C(C)=O)c1ccccc1`, the T/C was 97 % of control under setting [4], 97 % of control under setting [5] and 103 % of control under setting [6].

For the compound `CCC1CN2CCC1CC2C(O)c1cc[n+]([O-])c2ccc(OC)cc12` (stereo not drawn), the T/C by setting is: under setting [7], 98 % of control; (endpoint: mean survival time, dose: 200.0 mg/kg/injection, schedule: Q04DX003 (ip), vehicle: Klucel (hydroxypropylcellulose) (HPC)) 102 % of control; (endpoint: mean survival time, dose: 400.0 mg/kg/injection, schedule: Q04DX003 (ip), vehicle: Klucel (hydroxypropylcellulose) (HPC)) 102 % of control.

With `CC(=O)C1C(=O)C(=O)OC1C` (stereo not drawn), the T/C is, setting by setting: under setting [8], 102 % of control; under setting [9], 98 % of control; under setting [10], 101 % of control.

`COc1ccc(N/C=C/C2=[N+](C)c3ccccc3C2(C)C)c(OC)c1`: the T/C was 103 % of control under setting [8]; 105 % of control under setting [9]; 89 % of control under setting [11]; 97 % of control under setting [10]; 89 % of control under setting [12].

As to `CC(=O)N1CCCC2=C1CCCCCC2`, the T/C by setting is: (endpoint: mean survival time, dose: 12.5 mg/kg/injection, schedule: Q04DX003 (ip), vehicle: saline) 101 % of control; (endpoint: mean survival time, dose: 25.0 mg/kg/injection, schedule: Q01DX009 (ip), vehicle: saline) 110 % of control; (endpoint: mean survival time, dose: 25.0 mg/kg/injection, schedule: Q04DX003 (ip), vehicle: saline) 88 % of control; under setting [8], 115 % of control; (endpoint: mean survival time, dose: 50.0 mg/kg/injection, schedule: Q04DX003 (ip), vehicle: saline) 88 % of control; (endpoint: mean survival time, dose: 100.0 mg/kg/injection, schedule: Q01DX001 (ip), vehicle: saline) 96 % of control. For the same compound, the T/C reads like this: under setting [9], 113 % of control; (endpoint: mean survival time, dose: 100.0 mg/kg/injection, schedule: Q04DX002 (ip), vehicle: saline) 102 % of control; under setting [11], 90 % of control; (endpoint: mean survival time, dose: 200.0 mg/kg/injection, schedule: Q01DX001 (ip), vehicle: saline) 102 % of control; under setting [10], 110 % of control; (endpoint: mean survival time, dose: 200.0 mg/kg/injection, schedule: Q04DX002 (ip), vehicle: saline) 98 % of control. In addition, the T/C was 95 % of control under setting [12]; 93 % of control (endpoint: mean survival time, dose: 400.0 mg/kg/injection, schedule: Q01DX001 (ip), vehicle: saline); 95 % of control (endpoint: mean survival time, dose: 400.0 mg/kg/injection, schedule: Q04DX002 (ip), vehicle: saline); 91 % of control (endpoint: mean survival time, dose: 400.0 mg/kg/injection, schedule: Q04DX003 (ip), vehicle: saline); 98 % of control (endpoint: mean survival time, dose: 500.0 mg/kg/injection, schedule: Q04DX002 (ip), vehicle: saline); 93 % of control (endpoint: mean survival time, dose: 600.0 mg/kg/injection, schedule: Q01DX001 (ip), vehicle: saline).

Consider `Nc1nc(CCCCc2ccccc2)cc(=O)[nH]1`, for which the T/C reads like this: under setting [4], 93 % of control; under setting [5], 89 % of control; under setting [6], 91 % of control.

Turning to `CC(=O)Nc1nc(Br)c2ccccc2c1-c1ccc(N(CCO)CCO)cc1`, the T/C runs as follows: (endpoint: mean survival time, dose: 25.0 mg/kg/injection, schedule: Q04DX003 (ip), vehicle: DMSO) 90 % of control; (endpoint: mean survival time, dose: 50.0 mg/kg/injection, schedule: Q04DX003 (ip), vehicle: DMSO) 90 % of control; (endpoint: mean survival time, dose: 100.0 mg/kg/injection, schedule: Q04DX003 (ip), vehicle: DMSO) 94 % of control; (endpoint: mean survival time, dose: 200.0 mg/kg/injection, schedule: Q04DX003 (ip), vehicle: DMSO) 87 % of control.

`CCCCCCCCCc1nc(N)nc(N)n1`: the T/C is 104 % of control (endpoint: mean survival time, dose: 50.0 mg/kg/injection, schedule: Q01DX009 (ip), vehicle: saline with Tween-80); 104 % of control (endpoint: mean survival time, dose: 100.0 mg/kg/injection, schedule: Q01DX009 (ip), vehicle: saline with Tween-80); 104 % of control (endpoint: mean survival time, dose: 200.0 mg/kg/injection, schedule: Q01DX009 (ip), vehicle: saline with Tween-80).

Consider `O=[N+]([O-])/C(=C/c1ccccc1)c1ccccc1`, for which the T/C (endpoint: mean survival time, dose: 6.25 mg/kg/injection, schedule: Q01DX009 (ip), vehicle: saline with Tween-80) was 107 % of control; the T/C (endpoint: mean survival time, dose: 6.25 mg/kg/injection, schedule: Q04DX003 (ip), vehicle: saline with Tween-80) was 101 % of control; the T/C (endpoint: mean survival time, dose: 12.5 mg/kg/injection, schedule: Q01DX009 (ip), vehicle: saline with Tween-80) was 105 % of control; the T/C (endpoint: mean survival time, dose: 12.5 mg/kg/injection, schedule: Q04DX003 (ip), vehicle: saline with Tween-80) was 97 % of control; the T/C (endpoint: mean survival time, dose: 25.0 mg/kg/injection, schedule: Q01DX009 (ip), vehicle: saline with Tween-80) is 103 % of control; the T/C under setting [13] was 101 % of control.

In the case of `CCOC(=O)Nc1cc2c3ccccc3ncc2c2ccccc12`, the T/C is, setting by setting: under setting [13], 94 % of control; (endpoint: mean survival time, dose: 50.0 mg/kg/injection, schedule: Q04DX003 (ip), vehicle: saline with Tween-80) 86 % of control; under setting [4], 87 % of control; under setting [5], 89 % of control; under setting [6], 101 % of control.

For `N#CCCOCCNCCSC(=O)c1ccccc1`, the T/C is, setting by setting: under setting [4], 95 % of control; under setting [5], 101 % of control; under setting [6], 95 % of control.

With `CC1CCC(C)C([N+](C)(C)C)C1` (stereo not drawn), the T/C is, setting by setting: (endpoint: mean survival time, dose: 12.5 mg/kg/injection, schedule: Q01DX001 (ip), vehicle: saline) 102 % of control; (endpoint: mean survival time, dose: 25.0 mg/kg/injection, schedule: Q01DX001 (ip), vehicle: saline) 110 % of control; (endpoint: mean survival time, dose: 50.0 mg/kg/injection, schedule: Q01DX001 (ip), vehicle: saline) 100 % of control.

For the compound `CCOP(=O)(NCCCSC)OCC`, the T/C is 96 % of control (endpoint: mean survival time, dose: 5.0 mg/kg/injection, schedule: Q01DX009 (ip), vehicle: saline); 97 % of control (endpoint: mean survival time, dose: 10.0 mg/kg/injection, schedule: Q01DX009 (ip), vehicle: saline); 88 % of control (endpoint: mean survival time, dose: 20.0 mg/kg/injection, schedule: Q01DX009 (ip), vehicle: saline).

As for `O=c1[nH]n(Cc2ccccc2)c2ccccc12`, the T/C runs as follows: (endpoint: mean survival time, dose: 25.0 mg/kg/injection, schedule: Q04DX003 (ip), vehicle: Klucel (hydroxypropylcellulose) (HPC)) 101 % of control; (endpoint: mean survival time, dose: 50.0 mg/kg/injection, schedule: Q04DX003 (ip), vehicle: Klucel (hydroxypropylcellulose) (HPC)) 106 % of control; under setting [7], 106 % of control.

For the compound `CCCCCCCCCCCCCCCCCC(=O)Nc1ccn(C2OC(CO)C(O)C2O)c(=O)n1` (stereo not drawn), the T/C is, setting by setting: (endpoint: mean survival time, dose: 25.0 mg/kg/injection, schedule: Q04DX002 (ip), vehicle: saline with Tween-80) 229 % of control and 252 % of control; under setting [1], 271 % of control and 325 % of control; (endpoint: mean survival time, dose: 75.0 mg/kg/injection, schedule: Q04DX002 (ip), vehicle: saline with Tween-80) 365 % of control; under setting [2], 273 % of control and 313 % of control; under setting [3], 122 % of control; (endpoint: mean survival time, dose: 400.0 mg/kg/injection, schedule: Q04DX002 (ip), vehicle: saline with Tween-80) 110 % of control.
